In US8586566B2, “Unsaturated heterocyclic derivatives” (ARIAD Pharmaceuticals, Inc., priority 2005, dated 2013):

Cc1ccc(NC(=O)c2cccc(C(F)(F)F)c2)cc1/C=C/n1cnc2c(Nc3ccc(P(C)(C)=O)cc3)ncnc21 [Example 3, (E)-N-(3-(2-(6-(4-(Dimethylphosphoryl)phenylamino)-9H-purin-9-yl)vinyl)-4-methylphenyl)-3-(trifluoromethyl)benzamide] gave a melting point of 230 to 234 °C. For Cc1ccc(C(=O)Nc2cccc(C(F)(F)F)c2)cc1/C=C/n1cnc2c(NC3CC3)ncnc21 [Example 5, (E)-3-(2-(6-(Cyclopropylamino)-9H-purin-9-yl)vinyl)-4-methyl-N-(3-(trifluoromethyl)phenyl)benzamide], the melting point was 201 °C. With Cc1ccc(NC(=O)Nc2cccc(C(F)(F)F)c2)cc1/C=C/n1cnc2c(NC3CC3)ncnc21 [Example 6, (E)-1-(3-(2-(6-(Cyclopropylamino)-9H-purin-9-yl)vinyl)-4-methylphenyl)-3-(3-(trifluoromethyl)phenyl)urea] the melting point was 160 to 162 °C.
